Measured values published in patent US10143731B2, “Peptides and combination of peptides for use in immunotherapy against various cancers” (immatics biotechnologies GmbH, priority 2015, dated 2018).

System: CD8+ T cells
Experiment: In vitro T-cell priming assay (aAPCs loaded with peptide/MHC and anti-CD28, multimer staining readout)
Type: cell-based, human
Conditions: in vitro immunogenicity of HLA class I peptides
Description: In an aspect, the peptides are pre-screened for immunogenicity before being included in the warehouse. By way of example, and not limitation, the immunogenicity of the peptides included in the warehouse is determined by a method comprising in vitro T-cell priming through repeated stimulations of CD8+ T cells from healthy donors with artificial antigen presenting cells loaded with peptide/MHC complexes and anti-CD28 antibody.
In order to obtain information regarding the immunogenicity of the TUMAPs of the present invention, the inventors performed investigations using an in vitro T-cell priming assay based on repeated stimulations of CD8+ T cells with artificial antigen presenting cells (aAPCs) loaded with peptide/MHC complexes and anti-CD28 antibody.
In order to perform in vitro stimulations by artificial antigen presenting cells loaded with peptide-MHC complex (pMHC) and anti-CD28 antibody, the inventors first isolated CD8+ T cells from fresh HLA-A*02 leukapheresis products via positive selection using CD8 microbeads (Miltenyi Biotec, Bergisch-Gladbach, Germany) of healthy donors obtained from the University clinics Mannheim, Germany, after informed consent.
PBMCs and isolated CD8+ lymphocytes were incubated in T-cell medium (TCM) until use consisting of RPMI-Glutamax (Invitrogen, Karlsruhe, Germany) supplemented with 10% heat inactivated human AB serum (PAN-Biotech, Aidenbach, Germany), 100 U/ml Penicillin/100 μg/ml Streptomycin (Cambrex, Cologne, Germany), 1 mM sodium pyruvate (CC Pro, Oberdorla, Germany), 20 μg/ml Gentamycin (Cambrex). 2.5 ng/ml IL7 (PromoCell, Heidelberg, Germany) and 10 U/ml IL-2 (Novartis Pharma, Nürnberg, Germany) were also added to the TCM at this step.
Generation of pMHC/anti-CD28 coated beads, T-cell stimulations and readout was performed in a highly defined in vitro system using four different pMHC molecules per stimulation condition and 8 different pMHC molecules per readout condition.
The purified co-stimulatory mouse IgG2a anti human CD28 Ab 9.3 (Jung et al., 1987) was chemically biotinylated using Sulfo-N-hydroxysuccinimidobiotin as recommended by the manufacturer (Perbio, Bonn, Germany). Beads used were 5.6 μm diameter streptavidin coated polystyrene particles (Bangs Laboratories, Illinois, USA).
pMHC used for positive and negative control stimulations were A*0201/MLA-001 (peptide […] (SEQ ID NO. 303) from modified Melan-A/MART-1) and A*0201/DDX5-001 ([…] from DDX5, SEQ ID NO. 304), respectively.
800.000 beads/200 μl were coated in 96-well plates in the presence of 4×12.5 ng different biotin-pMHC, washed and 600 ng biotin anti-CD28 were added subsequently in a volume of 200 μl. Stimulations were initiated in 96-well plates by co-incubating 1×10^6 CD8+ T cells with 2×10^5 washed coated beads in 200 μl TCM supplemented with 5 ng/ml IL-12 (PromoCell) for 3 days at 37° C. Half of the medium was then exchanged by fresh TCM supplemented with 80 U/ml IL-2 and incubating was continued for 4 days at 37° C. This stimulation cycle was performed for a total of three times. For the pMHC multimer readout using 8 different pMHC molecules per condition, a two-dimensional combinatorial coding approach was used as previously described (Andersen et al., 2012) with minor modifications encompassing coupling to 5 different fluorochromes. Finally, multimeric analyses were performed by staining the cells with Live/dead near IR dye (Invitrogen, Karlsruhe, Germany), CD8-FITC antibody clone SK1 (BD, Heidelberg, Germany) and fluorescent pMHC multimers. For analysis, a BD LSRII SORP cytometer equipped with appropriate lasers and filters was used. Peptide specific cells were calculated as percentage of total CD8+ cells. Evaluation of multimeric analysis was done using the FlowJo software (Tree Star, Oregon, USA). In vitro priming of specific multimer+CD8+ lymphocytes was detected by comparing to negative control stimulations.

Substance	Wells positive [%]
5 (GIVAHIQEV; listed as Homo sapiens) [compound 5]	+ (<20% = +)
18 (ILLDLTDNRL; listed as Homo sapiens) [compound 18]	+ (<20% = +)
23 (SLFSDEFKV; listed as Homo sapiens) [compound 23]	++++ (> = 70% = ++++)
26 (ALQEELTEL; listed as Homo sapiens) [compound 26]	+ (<20% = +)
29 (YLLDPSITL; listed as Homo sapiens) [compound 29]	+ (<20% = +)
31 (TITETTVEV; listed as Homo sapiens) [compound 31]	+ (<20% = +)
35 (FLLPFSTVYL; listed as Homo sapiens) [compound 35]	+ (<20% = +)
90 (FLQDLEQRL; listed as Homo sapiens) [compound 90]	+ (<20% = +)
141 (FLDKVLVAA; listed as Homo sapiens) [compound 141]	+ (<20% = +)
149 (ILNTHITEL; listed as Homo sapiens) [compound 149]	+ (<20% = +)
196 (LYIDRPLPYL; listed as Homo sapiens) [compound 196]	++++ (> = 70% = ++++)
197 (EYSLFPGQVVI; listed as Homo sapiens) [compound 197]	+ (<20% = +)
207 (AYVVFVSTL; listed as Homo sapiens) [compound 207]	+ (<20% = +)
218 (YYKSTSSAF; listed as Homo sapiens) [compound 218]	+ (<20% = +)
230 (KLQNIMMLL; listed as Homo sapiens) [compound 230]	++++ (> = 70% = ++++)
268 (QYLGQIQHI; listed as Homo sapiens) [compound 268]	+ (<20% = +)
269 (YFIDSTNLKTHF; listed as Homo sapiens) [compound 269]	+ (<20% = +)
285 (HYPPVQVLF; listed as Homo sapiens) [compound 285]	+ (<20% = +)

System: HLA-A*24
Experiment: MHC binding assay by UV-ligand exchange and beta2m ELISA, HLA-A*24
Parameters: species or system human
Conditions: binding to HLA-A*24 ranged by peptide exchange yield (UV-ligand exchange, β2m ELISA)
Text: MHC Binding Assays Candidate peptides for T cell based therapies according to the present invention were further tested for their MHC binding capacity (affinity). The individual peptide-MHC complexes were produced by UV-ligand exchange, where a UV-sensitive peptide is cleaved upon UV-irradiation, and exchanged with the peptide of interest as analyzed. Only peptide candidates that can effectively bind and stabilize the peptide-receptive MHC molecules prevent dissociation of the MHC complexes. To determine the yield of the exchange reaction, an ELISA was performed based on the detection of the light chain (β2m) of stabilized MHC complexes. The assay was performed as generally described in Rodenko et al. (Rodenko et al., 2006).
96 well MAXISorp plates (NUNC) were coated over night with 2 ug/ml streptavidin in PBS at room temperature, washed 4× and blocked for 1 h at 37° C. in 2% BSA containing blocking buffer. Refolded HLA-A*02:01/MLA-001 monomers served as standards, covering the range of 15-500 ng/ml. Peptide-MHC monomers of the UV-exchange reaction were diluted 100 fold in blocking buffer. Samples were incubated for 1 h at 37° C., washed four times, incubated with 2 ug/ml HRP conjugated anti-β2m for 1 h at 37° C., washed again and detected with TMB solution that is stopped with […]. Absorption was measured at 450 nm. Candidate peptides that show a high exchange yield (preferably higher than 50%, most preferred higher than 75%) are generally preferred for a generation and production of antibodies or fragments thereof, and/or T cell receptors or fragments thereof, as they show sufficient avidity to the MHC molecules and prevent dissociation of the MHC complexes.

Substance	Peptide exchange
172 (TYTTVPRVAF; listed as Homo sapiens) [compound 172]	++++ (> = 75% = ++++)
173 (IYSWILDHF; listed as Homo sapiens) [compound 173]	++++ (> = 75% = ++++)
175 (YYEVHKELF; listed as Homo sapiens) [compound 175]	++++ (> = 75% = ++++)
177 (VYPWLGALL; listed as Homo sapiens) [compound 177]	++++ (> = 75% = ++++)
179 (MYDSYWRQF; listed as Homo sapiens) [compound 179]	++++ (> = 75% = ++++)
186 (IFPQFLYQF; listed as Homo sapiens) [compound 186]	++++ (> = 75% = ++++)
187 (TYLRDQHFL; listed as Homo sapiens) [compound 187]	++++ (> = 75% = ++++)
193 (RFHPTPLLL; listed as Homo sapiens) [compound 193]	++++ (> = 75% = ++++)
195 (TYSVSFPMF; listed as Homo sapiens) [compound 195]	++++ (> = 75% = ++++)
210 (IYTMIYRNL; listed as Homo sapiens) [compound 210]	++++ (> = 75% = ++++)
227 (IFLDYEAGTLSF; listed as Homo sapiens) [compound 227]	++++ (> = 75% = ++++)
228 (KYTSWYVAL; listed as Homo sapiens) [compound 228]	++++ (> = 75% = ++++)
274 (AYLHSHALI; listed as Homo sapiens) [compound 274]	++++ (> = 75% = ++++)
282 (KFVDSTFYL; listed as Homo sapiens) [compound 282]	++++ (> = 75% = ++++)
289 (KYPVEWAKF; listed as Homo sapiens) [compound 289]	++++ (> = 75% = ++++)

Further lines, results first:

Peptide exchange	Substance
++++ (> = 75% = ++++)	160 (VYTLDIPVL; listed as Homo sapiens) [compound 160]
++++ (> = 75% = ++++)	161 (IYLVSIPEL; listed as Homo sapiens) [compound 161]
++++ (> = 75% = ++++)	166 (YYVESGKLF; listed as Homo sapiens) [compound 166]
++++ (> = 75% = ++++)	168 (KYQDILETI; listed as Homo sapiens) [compound 168]
++++ (> = 75% = ++++)	181 (LYLDIINLF; listed as Homo sapiens) [compound 181]
++++ (> = 75% = ++++)	184 (VFQNFPLLF; listed as Homo sapiens) [compound 184]
++++ (> = 75% = ++++)	192 (SYALLTYMI; listed as Homo sapiens) [compound 192]
++++ (> = 75% = ++++)	202 (VYWDSAGAAHF; listed as Homo sapiens) [compound 202]
++++ (> = 75% = ++++)	211 (YYLEVGKTLI; listed as Homo sapiens) [compound 211]
++++ (> = 75% = ++++)	216 (QYSSVFKSL; listed as Homo sapiens) [compound 216]
++++ (> = 75% = ++++)	217 (FFPPTRQMGLLF; listed as Homo sapiens) [compound 217]
++++ (> = 75% = ++++)	267 (KYMVYPQTF; listed as Homo sapiens) [compound 267]
++++ (> = 75% = ++++)	271 (LYHDIFSRL; listed as Homo sapiens) [compound 271]
++++ (> = 75% = ++++)	272 (QYLQDAYSF; listed as Homo sapiens) [compound 272]
++++ (> = 75% = ++++)	276 (VYGFQWRHF; listed as Homo sapiens) [compound 276]
++++ (> = 75% = ++++)	277 (VYQGHTALL; listed as Homo sapiens) [compound 277]
++++ (> = 75% = ++++)	278 (RYISDQLFTNF; listed as Homo sapiens) [compound 278]
++++ (> = 75% = ++++)	280 (RYPDNLKHLYL; listed as Homo sapiens) [compound 280]
